Assay results as given in ChEMBL document CHEMBL3137386, “DNDi T. cruzi fenarimol series dataset from which preclinical candidate EPL-BS1246 was identified (see also related datasets CHEMBL2448688 and CHEMBL3137440)”.
Values after ≈ are worked out from the molar mass of the structure shown. Values joined by “and” are separate entries in the source; they are usually repeats but may differ in a detail not shown here. Equal entries are not always repeated. Blank lines part the entries; values can stand above or below the molecule they belong to.

Key:
[1] = (§1) DNDI: Metabolism; format: ADME, Microsome; conditions: human, microsomes; for hepatic extraction ratio: read-out: EH
Trypanosoma cruzi [2] = test: (§2) DNDI: Chagas in vitro; format: functional, Tulahuen C4 (LacZ)
[3] = (§3) DNDI: Cytotoxicity against L-6 rat myoblasts from skeletal muscle; format: toxicity, cell-based, Muscle tissue, L6; conditions: rat, L6 rat skeletal muscle myoblasts
[4] = DNDI: Lipophilicity (gLogD) at pH 7.4; format: physicochemical; conditions: buffer
Cytochrome P450 3A4 [5] = molecular target: T1, Cytochrome P450 3A4 (Homo sapiens, UniProt P08684); test: (§4) DNDI: CYP Inhibition; format: ADME
T1 sequence (P08684 whole entry): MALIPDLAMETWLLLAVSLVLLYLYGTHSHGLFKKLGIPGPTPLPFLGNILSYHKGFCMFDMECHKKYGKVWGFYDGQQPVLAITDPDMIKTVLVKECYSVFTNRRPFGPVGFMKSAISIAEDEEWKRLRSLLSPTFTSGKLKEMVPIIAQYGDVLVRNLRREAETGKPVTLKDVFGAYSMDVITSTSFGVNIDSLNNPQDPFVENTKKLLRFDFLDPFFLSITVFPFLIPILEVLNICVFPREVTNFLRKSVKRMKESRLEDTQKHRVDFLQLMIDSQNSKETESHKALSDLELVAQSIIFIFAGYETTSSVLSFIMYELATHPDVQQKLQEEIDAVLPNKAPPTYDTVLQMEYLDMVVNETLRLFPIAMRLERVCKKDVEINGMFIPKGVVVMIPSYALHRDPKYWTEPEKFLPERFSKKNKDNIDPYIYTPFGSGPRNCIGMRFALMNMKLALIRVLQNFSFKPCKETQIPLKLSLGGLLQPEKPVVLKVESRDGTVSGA

[6] = DNDI: Solubility in 0.01M HCl at pH 2 determined by nephelometry; format: physicochemical; conditions: 0.01 M HCl
[7] = DNDI: Lipophilicity (gLogD) at pH 3; format: physicochemical; conditions: buffer
[8] = system: Trypanosoma brucei rhodesiense; test: DNDI: HAT in vitro; format: functional, organism-based; conditions: ATCC 30027
[9] = (§5) DNDI: Solubility, 24 hour, FaSSIF, 37C; format: physicochemical; conditions: read-out: Equilibrium
Cytochrome P450 3A4 [10] = molecular target: T1, Cytochrome P450 3A4; test: as §4; format: ADME; remark: listed apart in the source
[11] = DNDI: Lipophilicity (s.f. LogD) at pH 5; format: physicochemical; conditions: buffer
[12] = DNDI: pKa; format: physicochemical
[13] = DNDI: Protein binding in human plasma; format: ADME; conditions: read-out: % bound (converted)
[14] = DNDI: Solubility, 24 hour, FaSSIF buffer - pH 6.5. 37C; format: physicochemical; conditions: read-out: Equilibrium
[15] = (§6) DNDI: Solubility, 24 hour, Isotonic phos buffer - pH 2; format: physicochemical; conditions: isotonic phosphate buffer, read-out: Equilibrium
[16] = DNDI: Lipophilicity (s.f. LogD) at pH 2; format: physicochemical; conditions: buffer
[17] = DNDI: Protein binding 10% serum RPMI; format: ADME; conditions: RPMI with 10% serum; read-out: % bound (converted)
Trypanosoma cruzi [18] = test: as §2; format: functional, organism-based, Tulahuen C4 (LacZ)
[19] = DNDI: Protein binding in dog plasma; format: ADME, Canis lupus familiaris, 9615; conditions: read-out: % bound (converted)
[20] = as §1; format: ADME, 10116, Microsome; conditions: rat, microsomes
Cytochrome P450 3A4 [21] = molecular target: T1, Cytochrome P450 3A4; test: as §4; format: ADME; remark: listed apart in the source
L6 = test: as §3; format: toxicity, cell-based, Muscle tissue; conditions: l6
[22] = DNDI: Lipophilicity (s.f. LogD water); format: physicochemical
[23] = DNDI: Solubility, 24 hour, FaSSIF buffer - pH 5.8, 37C; format: physicochemical; conditions: read-out: Equilibrium
[24] = DNDI: Protein binding in rat plasma; format: ADME, 10116; conditions: read-out: % bound (converted)
[25] = as §6; format: physicochemical; conditions: isotonic phosphate buffer, read-out: Equilibrium; remark: listed apart in the source
[26] = DNDI: Solubility, 24 hour, SGF - pH 1, 37C; format: physicochemical; conditions: read-out: Equilibrium
[27] = as §1; format: ADME, 10090, Microsome; conditions: mouse, microsomes
[28] = DNDI: Lipophilicity (s.f. LogD) at pH 7.4; format: physicochemical; conditions: buffer
Cytochrome P450 3A4 [29] = molecular target: T1, Cytochrome P450 3A4; test: as §4; format: ADME; remark: listed apart in the source
[30] = as §1; format: ADME, Canis lupus familiaris, 9615, Microsome; conditions: dog, microsomes
[31] = as §5; format: physicochemical; conditions: read-out: Equilibrium; remark: listed apart in the source
[32] = DNDI: Protein binding in human liver microsomes; format: ADME; conditions: read-out: % bound (converted)
[33] = DNDI: Protein binding in mouse plasma; format: ADME, 10090; conditions: read-out: % bound (converted)
[34] = DNDI: Solubility in phosphate buffer at pH 6.5 determined by nephelometry; format: physicochemical
[35] = Trypanosoma cruzi, Tulahuen C4 (LacZ)

SMILES: CS(=O)(=O)c1ccc(N2CCN(C(=O)C(c3ccc(C#N)cc3)c3cccnc3)CC2)cc1 (stereo not given)
Clint [1]: 15 µL/min/mg and 10 µL/min/mg and < 7 µL/min/mg
EH [1]: 0.36 and < 0.28
t (1 / 2) [1]: 113 min and 169 min and > 250 min
hepatic extraction ratio [1]: 0.46
IC90 (Trypanosoma cruzi [2]): > 100 nM and 29.1 nM
IC50 [3]: > 100000 nM
chromatographic logD [4]: 2.3
IC50 (Cytochrome P450 3A4 [5]): > 20000 nM
solubility kinetic [6]: > 100 µg/mL
chromatographic logD [7]: 1.8
IC50 [8]: > 10000 nM

SMILES: O=C(c1ccccc1)N1CCN(C(=O)C(c2ccc(Cl)cc2)c2cccnc2)CC1 (stereo not given)
IC50 (Trypanosoma cruzi [18]; [35]): 49.5 nM
IC90 (Trypanosoma cruzi [2]; [35]): > 100 nM
IC50 [3]: > 100000 nM
IC50 [8]: > 10000 nM

SMILES: O=C(C(c1ccc(Cl)cc1)c1cccnc1)N1CCN(c2nccs2)CC1 (stereo not given)
IC50 (Trypanosoma cruzi [18]; [35]): 51 nM
IC90 (Trypanosoma cruzi [2]; [35]): > 100 nM
IC50 [3]: > 100000 nM
IC50 [8]: > 10000 nM

SMILES: N#Cc1ccc(C(C(=O)N2CCN(c3ccc(C(F)(F)F)nc3)CC2)c2cccnc2)cc1 (stereo not given)
Clint [1]: 22 µL/min/mg and 21 µL/min/mg
EH [1]: 0.56 and 0.54
half-life [1]: 144 min
microsomal CLint [1]: 12 µL/min/mg
t (1 / 2) [1]: 77 min and 81 min
hepatic extraction ratio [1]: 0.4
IC50 (Trypanosoma cruzi [18]): 55 nM and > 100 nM and 20.5 nM
IC90 (Trypanosoma cruzi [2]): 81.5 nM
IC90 (Trypanosoma cruzi [2]; [35]): > 100 nM
IC50 [3]: > 100000 nM
chromatographic logD [4]: 3
IC50 (Cytochrome P450 3A4 [5]): > 20000 nM
solubility kinetic [34]: 12.5 µg/mL (≈ 27.7 µM)
solubility kinetic [6]: > 100 µg/mL
chromatographic logD [7]: 2.5
IC50 [8]: > 10000 nM

Continued, in another order:

solubility thermodynamic at 24 h [9]: 75.9 µg/mL (≈ 165 µM)
IC50 (Cytochrome P450 3A4 [10]): 1200 nM
logD [11]: 5.47
pKa [12]: 2.62
fraction unbound [13]: 0.025
solubility thermodynamic at 24 h [14]: < 1 µg/mL
solubility thermodynamic at 24 h [15]: < 1 µg/mL
logD [16]: 2.71
fraction unbound [17]: 0.076
half-life [1]: 85 min
microsomal CLint [1]: 20 µL/min/mg
hepatic extraction ratio [1]: 0.53
IC50 (Trypanosoma cruzi [18]): 7 nM
IC50 (Trypanosoma cruzi [18]; [35]): 10 nM
IC90 (Trypanosoma cruzi [2]): 10 nM and 47.5 nM
fraction unbound [19]: 0.012
half-life [20]: 46 min
microsomal CLint [20]: 38 µL/min/mg
hepatic extraction ratio ([20]; read-out: EH): 0.55
IC50 (Cytochrome P450 3A4 [21]): 20000 nM
chromatographic logD [4]: 4.5
logD [22]: 5.44
solubility thermodynamic at 24 h [23]: < 1 µg/mL
fraction unbound [24]: 0.027
solubility thermodynamic at 24 h [25]: 127 µg/mL (≈ 276 µM)
solubility thermodynamic at 24 h [26]: 1500 µg/mL (≈ 3260 µM)
half-life [27]: 30 min
microsomal CLint [27]: 59 µL/min/mg
hepatic extraction ratio ([27]; read-out: EH): 0.72
solubility kinetic [6]: > 100 µg/mL
logD [28]: 5.54
chromatographic logD [7]: 4.1
IC50 (Cytochrome P450 3A4 [29]): 7400 nM
half-life [30]: 130 min
microsomal CLint [30]: 13 µL/min/mg
hepatic extraction ratio ([30]; read-out: EH): 0.38
solubility thermodynamic at 24 h [31]: 1.3 µg/mL (≈ 2.83 µM)
fraction unbound [32]: 0.023
IC50 [8]: > 10000 nM
fraction unbound [33]: 0.014
SMILES: O=C(C(c1ccc(Cl)cc1)c1cccnc1)N1CCN(c2ccc(C(F)(F)F)cc2)CC1 (stereo not given)
IC50 [3]: 37700 nM
IC50 (L6): 42400 nM

IC50 (Trypanosoma cruzi [18]; [35]): 65 nM
IC90 (Trypanosoma cruzi [2]; [35]): > 100 nM
IC50 [8]: > 10000 nM
SMILES: CC(C)CN1CCN(C(=O)C(c2ccc(Cl)cc2)c2cccnc2)CC1 (stereo not given)
IC50 [3]: > 100000 nM

IC50 (Trypanosoma cruzi [18]; [35]): > 100 nM
IC90 (Trypanosoma cruzi [2]; [35]): > 100 nM
IC50 [8]: > 10000 nM
SMILES: COCCN1CCN(C(=O)C(c2ccc(Cl)cc2)c2cccnc2)CC1 (stereo not given)
IC50 [3]: > 100000 nM

IC50 (Trypanosoma cruzi [18]; [35]): 14.8 nM
IC90 (Trypanosoma cruzi [2]; [35]): > 100 nM
IC50 [8]: > 10000 nM
SMILES: O=C(C(c1ccc(Cl)cc1)c1cccnc1)N1CCN(Cc2cccc(C(F)(F)F)c2)CC1 (stereo not given)

Clint [1]: 42 µL/min/mg and 38 µL/min/mg
EH [1]: 0.68 and 0.7
half-life [1]: 50 min
microsomal CLint [1]: 35 µL/min/mg
t (1 / 2) [1]: 41 min and 45 min
hepatic extraction ratio [1]: 0.66
IC50 (Trypanosoma cruzi [18]): 10 nM and 12 nM and 67.5 nM
IC90 (Trypanosoma cruzi [2]): 27 nM and 71.5 nM and > 100 nM
IC50 (Cytochrome P450 3A4 [5]): > 20000 nM
solubility kinetic [6]: > 100 µg/mL
chromatographic logD [7]: 3.5
IC50 [8]: > 10000 nM
SMILES: N#Cc1ccc(C(C(=O)N2CCN(c3ccc(C(F)(F)F)cc3)CC2)c2cccnc2)cc1 (stereo not given)
IC50 [3]: 73800 nM
IC50 (L6): 54700 nM

Clint [1]: 36 µL/min/mg and 61 µL/min/mg
EH [1]: 0.77 and 0.7
half-life [1]: 41 min
microsomal CLint [1]: 42 µL/min/mg
t (1 / 2) [1]: 49 min and 28 min
hepatic extraction ratio [1]: 0.67
IC90 (Trypanosoma cruzi [2]): > 100 nM and 1030 nM
IC50 (Cytochrome P450 3A4 [21]): 20000 nM
IC50 (Cytochrome P450 3A4 [5]): > 20000 nM
solubility kinetic [6]: > 100 µg/mL
chromatographic logD [7]: 3.2
IC50 [8]: > 10000 nM
SMILES: O=C(C(c1ccc(Cl)cc1)c1cccnc1)N1CCN(c2ccc(C(F)(F)F)nc2)CC1 (stereo not given)
IC50 [3]: 66800 nM
